Target: hCB2R (Homo sapiens (Human), UniProt P34972)
Assay: TR-FRET hCB2R Binding Assay
Settings: not given

Row | Compound | Kd
1 | COc1cc(C(C)(C)CCCCCCN=[N+]=[N-])cc(OC)c1[C@H]1C=C(CNC(=O)CCCCCCCCNC(=O)c2ccc(=O)n(S(=O)(=O)c3cccc(C(=O)NCc4cn(CCOCCNc5ccc([N+](=O)[O-])c6nonc56)nn4)c3)c2)[C@H]2C[C@@H]1C2(C)C [Example 7, N-(9-((((1S,4S,5S)-4-(4-(8-azido-2-methyloctan-2-yl)-2,6-dimethoxyphenyl)-6,6-dimethylbicyclo[3.1.1]hept-2-en-2-yl)methyl)amino)-9-oxononyl)-1-((3-(((1-(2-(2-((7-nitrobenzo[c][1,2,5]oxadiazol-4-yl)amino)ethoxy)ethyl)-1H-1,2,3-triazol-4-yl)methyl)carbamoyl)phenyl)sulfonyl)-6-oxo-1,6-dihydropyridine-3-carboxamide] | 8.9 nM

Same assay, conditions: SNAP-tagged human CB2R HEK293-TR cell membranes, TR-FRET (HTRF) detection, nonspecific binding with 1 μM SR144528; read-out: Kd hCB2R

Row | Compound | Kd
2 | COc1cc(C(C)(C)CCCCCCN=[N+]=[N-])cc(OC)c1[C@H]1C=C(CNC(=O)CCCCCCNC(=O)c2ccc(=O)n(S(=O)(=O)c3cccc(C(=O)NCc4cn(CCOCCNc5ccc([N+](=O)[O-])c6nonc56)nn4)c3)c2)[C@H]2C[C@@H]1C2(C)C [Example 2, N-(7-((((1S,4S,5S)-4-(4-(8-azido-2-methyloctan-2-yl)-2,6-dimethoxyphenyl)-6,6-dimethylbicyclo[3.1.1]hept-2-en-2-yl)methyl)amino)-7-oxoheptyl)-1-((3-(((1-(2-(2-((7-nitrobenzo[c][1,2,5]oxadiazol-4-yl)amino)ethoxy)ethyl)-1H-1,2,3-triazol-4-yl)methyl)carbamoyl)phenyl)sulfonyl)-6-oxo-1,6-dihydropyridine-3-carboxamide] | 22.9 nM
3 | CCCCCCC(C)(C)c1cc(OC)c([C@H]2C=C(CNC(=O)CCCCCCNC(=O)c3ccc(=O)n(S(=O)(=O)c4cccc(C(=O)NCc5cn(CCOCCNc6ccc([N+](=O)[O-])c7nonc67)nn5)c4)c3)[C@H]3C[C@@H]2C3(C)C)c(OC)c1 [Example 3, N-(7-((((1S,4S,5S)-4-(2,6-dimethoxy-4-(2-methyloctan-2-yl)phenyl)-6,6-dimethylbicyclo[3.1.1]hept-2-en-2-yl)methyl)amino)-7-oxoheptyl)-1-((3-(((1-(2-(2-((7-nitrobenzo[c][1,2,5]oxadiazol-4-yl)amino)ethoxy)ethyl)-1H-1,2,3-triazol-4-yl)methyl)carbamoyl)phenyl)sulfonyl)-6-oxo-1,6-dihydropyridine-3-carboxamide] | 24.2 nM
4 | COc1cc(C(C)(C)CCCCCCN=[N+]=[N-])cc(OC)c1[C@H]1C=C(CNC(=O)CCCCCCNC(=O)c2ccc(S(=O)(=O)N(CC#N)C(=O)CCc3cn(CCOCCNc4ccc([N+](=O)[O-])c5nonc45)nn3)cc2)[C@H]2C[C@@H]1C2(C)C [Example 11, N-(7-((((1S,4S,5S)-4-(4-(8-azido-2-methyloctan-2-yl)-2,6-dimethoxyphenyl)-6,6-dimethylbicyclo[3.1.1]hept-2-en-2-yl)methyl)amino)-7-oxoheptyl)-4-(N-(cyanomethyl)-N-(3-(1-(2-(2-((7-nitrobenzo[c][1,2,5]oxadiazol-4-yl)amino)ethoxy)ethyl)-1H-1,2,3-triazol-4-yl)propanoyl)sulfamoyl)benzamide] | 152 nM
5 | CCN(CC)c1ccc2cc(C=Cc3ccc(S(=O)(=O)[O-])c[n+]3CCCCCC(=O)NCCOCCn3cc(CNC(=O)c4cccc(S(=O)(=O)n5cc(C(=O)NCCCCCCC(=O)NCC6=C[C@H](c7c(OC)cc(C(C)(C)CCCCCCN=[N+]=[N-])cc7OC)[C@@H]7C[C@H]6C7(C)C)ccc5=O)c4)nn3)c(=O)oc2c1 [Example 5, 1-(6-((2-(2-(4-((3-((5-((7-((((1S,4S,5S)-4-(4-(8-azido-2-methyloctan-2-yl)-2,6-dimethoxyphenyl)-6,6-dimethylbicyclo[3.1.1]hept-2-en-2-yl)methyl)amino)-7-oxoheptyl)carbamoyl)-2-oxopyridin-1 (2H)-yl)sulfonyl)benzamido)methyl)-1H-1,2,3-triazol-1-yl)ethoxy)ethyl)amino)-6-oxohexyl)-6-(2-(7-(diethylamino)-2-oxo-2H-chromen-3-yl)vinyl)pyridin-1-ium-3-sulfonate] | 59 nM
6 | COc1cc(C(C)(C)CCCCCCN=[N+]=[N-])cc(OC)c1[C@H]1C=C(CNC(=O)CCCCCCNC(=O)c2ccc(S(=O)(=O)N(CC#N)C(=O)CCc3cn(CCOCCNC(=O)c4ccc5c(c4)C4(OC5=O)c5ccc(N6CCC6)cc5[Si](C)(C)c5cc(N6CCC6)ccc54)nn3)cc2)[C@H]2C[C@@H]1C2(C)C [Example 13, 3,7-di(azetidin-1-yl)-N-(2-(2-(4-(3-((4-((7-((((1S,4S,5S)-4-(4-(8-azido-2-methyloctan-2-yl)-2,6-dimethoxyphenyl)-6,6-dimethylbicyclo[3.1.1]hept-2-en-2-yl)methyl)amino)-7-oxoheptyl)carbamoyl)-N-(cyanomethyl)phenyl)sulfonamido)-3-oxopropyl)-1H-1,2,3-triazol-1-yl)ethoxy)ethyl)-5,5-dimethyl-3′-oxo-3′H,5H-spiro[dibenzo[b,e]siline-10,1′-isobenzofuran]-6′-carboxamide] | 124 nM
7 | COc1cc(C(C)(C)CCCCCCN=[N+]=[N-])cc(OC)c1[C@H]1C=C(CNC(=O)CCCCCCNC(=O)c2ccc(S(=O)(=O)N(CC#N)C(=O)CCCCCNc3ccc([N+](=O)[O-])c4nonc34)cc2)[C@H]2C[C@@H]1C2(C)C [Example 10, N-(7-((((1S,4S,5S)-4-(4-(8-azido-2-methyloctan-2-yl)-2,6-dimethoxyphenyl)-6,6-dimethylbicyclo[3.1.1]hept-2-en-2-yl)methyl)amino)-7-oxoheptyl)-4-(N-(cyanomethyl)-N-(6-((7-nitrobenzo[c][1,2,5]oxadiazol-4-yl)amino)hexanoyl)sulfamoyl)benzamide] | 3.9 nM
8 | CCCCCCC(C)(C)c1cc(OC)c([C@H]2C=C(CNC(=O)CCCCCCNC(=O)c3ccc(S(=O)(=O)N(Cc4ccccn4)C(=O)CCCCCNc4ccc([N+](=O)[O-])c5nonc45)cc3)[C@H]3C[C@@H]2C3(C)C)c(OC)c1 [Example 9, N-(7-((((1S,4S,5S)-4-(2,6-dimethoxy-4-(2-methyloctan-2-yl)phenyl)-6,6-dimethylbicyclo[3.1.1]hept-2-en-2-yl)methyl)amino)-7-oxoheptyl)-4-(N-(6-((7-nitrobenzo[c][1,2,5]oxadiazol-4-yl)amino)hexanoyl)-N-(pyridin-2-ylmethyl)sulfamoyl)benzamide] | 35.5 nM
9 | COc1cc(C(C)(C)CCCCCCN=[N+]=[N-])cc(OC)c1[C@H]1C=C(CNC(=O)CCCCCCNC(=O)c2ccc(=O)n(S(=O)(=O)c3cccc(C(=O)NCc4cn(CCOCCOCCOCCOCCNc5ccc([N+](=O)[O-])c6nonc56)nn4)c3)c2)[C@H]2C[C@@H]1C2(C)C [Example 4, N-(7-((((1S,4S,5S)-4-(4-(8-azido-2-methyloctan-2-yl)-2,6-dimethoxyphenyl)-6,6-dimethylbicyclo[3.1.1]hept-2-en-2-yl)methyl)amino)-7-oxoheptyl)-1-((3-(((1-(14-((7-nitrobenzo[c][1,2,5]oxadiazol-4-yl)amino)-3,6,9,12-tetraoxatetradecyl)-1H-1,2,3-triazol-4-yl)methyl)carbamoyl)phenyl)sulfonyl)-6-oxo-1,6-dihydropyridine-3-carboxamide] | 4.5 nM
10 | COc1cc(C(C)(C)CCCCCCN=[N+]=[N-])cc(OC)c1[C@H]1C=C(CNC(=O)CCCCNC(=O)c2ccc(=O)n(S(=O)(=O)c3cccc(C(=O)NCCc4cn(CCOCCNc5ccc([N+](=O)[O-])c6nonc56)nn4)c3)c2)[C@H]2C[C@@H]1C2(C)C [Example 1, N-(5-((((1S,4S,5S)-4-(4-(8-azido-2-methyloctan-2-yl)-2,6-dimethoxyphenyl)-6,6-dimethylbicyclo[3.1.1]hept-2-en-2-yl)methyl)amino)-5-oxopentyl)-1-((3-((2-(1-(2-(2-((7-nitrobenzo[c][1,2,5]oxadiazol-4-yl)amino)ethoxy)ethyl)-1H-1,2,3-triazol-4-yl)ethyl)carbamoyl)phenyl)sulfonyl)-6-oxo-1,6-dihydropyridine-3-carboxamide] | 9.1 nM
11 | COc1cc(C(C)(C)CCCCCCN=[N+]=[N-])cc(OC)c1[C@H]1C=C(CNC(=O)CCCCCCOc2c(F)c(F)c3c(c2F)C2(OC3=O)c3ccc(N4CCC4)cc3[Si](C)(C)c3cc(N4CCC4)ccc32)[C@H]2C[C@@H]1C2(C)C [Example 19, N-(((1S,4S,5S)-4-(4-(8-azido-2-methyloctan-2-yl)-2,6-dimethoxyphenyl)-6,6-dimethylbicyclo[3.1.1]hept-2-en-2-yl)methyl)-7-((3,7-di(azetidin-1-yl)-4′,5′,7′-trifluoro-5,5-dimethyl-3′-oxo-3′H,5H-spiro[dibenzo[b,e]siline-10,1′-isobenzofuran]-6′-yl)oxy)heptanamide] | 2 nM
12 | COc1cc(C(C)(C)CCCCCCN=[N+]=[N-])cc(OC)c1[C@H]1C=C(CNC(=O)CCCCCCNC(=O)c2ccc(S(=O)(=O)N(Cc3ccccn3)C(=O)CCCCCNc3ccc([N+](=O)[O-])c4nonc34)cc2)[C@H]2C[C@@H]1C2(C)C [Example 8, N-(7-((((1S,4S,5S)-4-(4-(8-azido-2-methyloctan-2-yl)-2,6-dimethoxyphenyl)-6,6-dimethylbicyclo[3.1.1]hept-2-en-2-yl)methyl)amino)-7-oxoheptyl)-4-(N-(6-((7-nitrobenzo[c][1,2,5]oxadiazol-4-yl)amino)hexanoyl)-N-(pyridin-2-ylmethyl)sulfamoyl)benzamide] | 12 nM
13 | C#CCCC(=O)N(CC#N)S(=O)(=O)c1ccc(C(=O)NCCCCCCC(=O)NCC2=C[C@H](c3c(OC)cc(C(C)(C)CCCCCCN=[N+]=[N-])cc3OC)[C@@H]3C[C@H]2C3(C)C)cc1 [Example 14, N-(7-((((1S,4S,5S)-4-(4-(8-azido-2-methyloctan-2-yl)-2,6-dimethoxyphenyl)-6,6-dimethylbicyclo[3.1.1]hept-2-en-2-yl)methyl)amino)-7-oxoheptyl)-4-(N-(cyanomethyl)-N-(pent-4-ynoyl)sulfamoyl)benzamide] | 1.5 nM

From patent publication US20250325711A1, “COVALENT FLUORESCENT PROBES FOR CANNABINOID RECEPTOR 2” (Hoffmann-La Roche Inc., priority 2022, published 2025)
